# Measured values: patent US5594009A, “Fused pyrrolocarbazoles” (priority 1995, dated 1997)
# Read-outs that look alike come from different tables or passages of the source.
# B1: NT-3: Recombinant rat NT-3 produced by using a recombinant baculovirus expression vector (protein, UniProt P18280 140-258, looked up)
# Neurotrophin-3: YAEHKSHRGEYSVCDSESLWVTDKSSAIDIRGHQVTVLGEIKTGNSPVKQYFYETRCKEARPVKNGCRGIDDKHWNSQCKTSQTYVRALTSENNKLVGWRWIRIDTSCVCALSRKIGRT
# modifications: baculovirus-expressed
# notes: Recombinant rat NT-3 produced by using a recombinant baculovirus expression vector
# What was measured:
# [1] = tested on: AT-2 cells; experiment: Inhibition of Growth of Prostate Cancer Cell Line (MTS assay); format: cell-based; details: 72 h, read-out: AT-2 cell growth IC50
# Experimental: AT-2 cells are a prostate cancer cell sub-line derived from the Dunning H tumor, graciously provided to us by Dr. John Isaacs (John Hopkins, M. D.). Unlike the Dunning H tumor cells, AT-2 cells can be grown in vitro.
# Methods: At-2 cells ([…]) were plated on tissue culture plastic in 96-well plates in the presence of RPMI-1640 medium containing 10% fetal calf serum, 250 nM dexamethasone, 2 mM glutamine, 1 mM sodium pyruvate, and penicillin/streptomycin antibiotics. The next day, compounds were added at 4 concentrations (10, 1, 0.1, 0.01 μM) to determine the approximate IC50 range. Cultures were assayed 3 days later for cell number using the MTS [(3-(4,5-dimethylthiazol-2-yl)-5-(3-carboxymethoxyphenyl)-2-(4-sulfophenyl)-2H-tetrazolium, inner salt)] assay. The MTS assay (purchased as a kit from Promega) measures the formation of an aqueous soluble formazan (detected by a plate reader at 490nm) produced by the bioreduction of a tetrazolium compound (MTS) in metabolically active cells via mitochondrial succinate dehydrogenase. After determining linearity of the substrate incubation time over a range of cell plating densities, the amount of product measured is directly proportional to cell number. MTS (333 ug/ml) and 25 μM phenazine methosulfate are mixed and added directly to the culture medium, and incubated at 37° C. in the 5% CO2 /95% air incubator for 0.5-4 h. Absorbance of the product at 490 nm is read on the BIO-TEK plate reader. Background values were obtained from wells containing culture medium with substrate solution, but no cells. In addition, values were also obtained from wells containing cells plated at day 0 and assayed on the day compound was added (day 1) in order to determine the number of cells at the time compound was added. After the initial dose-finding experiment was completed, subsequent experiments were set up so that there were 3 or more concentrations near the predicted IC50.
# [2] = tested on: choline acetyltransferase (ChAT) activity in dissociated rat embryonic spinal cord culture; experiment: Spinal Cord ChAT Activity Assay; format: cell-based; details: ChAT measured after 48 hours
# Experimental: In these assays, a fused pyrrolocarbazole was directly added to a dissociated spinal cord culture. […] The fused pyrrolocarbazole was added on the same day the dissociated spinal cord cell culture was initiated.
# Methods: Fetal rat spinal cord cells were dissociated, and experiments were performed as described (Smith et al., J. Cell Biology., 101:1608-1621 (1985); Glicksman et al., J. Neurochem. 61:210-221 (1993)). Dissociated cells were prepared from spinal cords dissected from rats (embryonic day 14-15) by standard trypsin dissociation techniques (Smith et al., J. Cell Biology 10:1608-1621 (1985)). Cells were plated at 6×10^5 cells/cm^2 on poly-1-ornithine coated plastic tissue culture wells in serum-free N2 medium supplemented with 0.05% bovine serum albumin (BSA) (Bottenstein et al., PNAS USA 514-517 (1979)). Cultures were incubated at 37° C. in a humidified atmosphere of 5% CO2 /95% air for 48 hours. ChAT activity was measured after 2 days it vitro using a modification of the Fonnum procedure (Fonnum, J. Neurochem. 24:407-409 (1975)) according to McManaman et al. and Glicksman et al. (McManaman et al., Developmental Biology 125:311-320 (1988); Glicksman et al., J. Neurochem. 61:210-221 (1993)).
# [3] = target: protein kinase C; experiment: PKC Activity Inhibition Assay; format: biochemical
# Experimental: Fused pyrrolocarbazoles inhibited the activity of protein kinase C (Table VI). The protein kinase C assay has been disclosed (Murakata et al., U.S. Pat. No. 4,923,986; Kikkawa et al., J. Biol. Chem. 257:13341-13348 (1982)). The assay was performed with several concentrations of fused pyrrolocarbazoles. The concentration at which protein kinase C was 50% inhibited (IC50) was determined.
# [4] = target: trkA tyrosine kinase (Homo sapiens, UniProt P04629); experiment: trkA Tyrosine Kinase Activity Inhibition Assay (ELISA); format: biochemical; details: 16 μM ATP, 37° C., 15 min; read-out: INHIBITION OF trkA KINASE IC50
# Sequence of trkA tyrosine kinase (P04629 33-796): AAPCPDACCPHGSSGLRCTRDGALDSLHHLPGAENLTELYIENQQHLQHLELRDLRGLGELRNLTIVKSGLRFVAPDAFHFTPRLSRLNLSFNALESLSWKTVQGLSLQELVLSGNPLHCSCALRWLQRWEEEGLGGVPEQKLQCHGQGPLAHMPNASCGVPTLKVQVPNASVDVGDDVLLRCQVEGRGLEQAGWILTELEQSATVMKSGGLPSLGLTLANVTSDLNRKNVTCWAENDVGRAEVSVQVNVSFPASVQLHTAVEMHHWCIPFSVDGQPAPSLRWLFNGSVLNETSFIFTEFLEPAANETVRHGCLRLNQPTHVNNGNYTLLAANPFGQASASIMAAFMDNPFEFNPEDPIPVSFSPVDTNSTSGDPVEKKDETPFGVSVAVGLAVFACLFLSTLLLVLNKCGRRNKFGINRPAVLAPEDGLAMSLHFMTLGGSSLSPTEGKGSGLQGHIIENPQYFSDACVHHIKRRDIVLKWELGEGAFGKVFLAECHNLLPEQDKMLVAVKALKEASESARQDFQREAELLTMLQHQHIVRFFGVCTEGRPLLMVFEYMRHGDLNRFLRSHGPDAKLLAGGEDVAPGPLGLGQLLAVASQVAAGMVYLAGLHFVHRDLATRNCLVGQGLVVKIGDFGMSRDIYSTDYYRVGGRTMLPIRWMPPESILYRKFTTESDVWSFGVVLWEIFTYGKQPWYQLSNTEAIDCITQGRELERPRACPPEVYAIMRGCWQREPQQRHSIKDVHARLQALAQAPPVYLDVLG
# Experimental: These compounds were then tested for the ability to inhibit substrate phosphorylation by the trkA tyrosine kinase.
# Plates were washed three times with TBST, followed by two washes with TBS (TBST sans Tween-20). Fused pyrrolocarbazoles were then added at various concentrations to a reaction mixture (50 mM HEPES, pH 7.4, 5 mM MnCl2, 5 mM MgCl2, 140 mM NaCl, 16 μM ATP, and 15 ng trkA in a total volume of 1001 μL.). As a negative control, 100 mM EDTA was included in the reaction solution. The plates were then incubated at 37° C. for 15 min. The detection antibody, monoclonal anti-phosphotyrosine antibody (UBI), was added at a dilution of 1:2000 in TBST, and incubated for 1 hour at 37° C. Plates were then washed three times with TBST, followed by a 1 hour incubation at 37° C. with alkaline phosphatase-labeled goat anti-mouse IgG (1:2000 in TBST (Bio-Rad)). After washing three times with TBST followed by two washes with TBS, a colored product was produced by using NADPH as substrate for alkaline phosphatase, and the coupled reactions of diaphorase and alcohol dehydrogenase (GIBCO-BRL ELISA amplification system). The colored product was read at 490 nm in a microplate reader (Biotek).
# [5] = tested on: NT-3 induced ChAT activity of rat basal forebrain cultures; experiment: Enhancement of Neurotrophin (NT-3) Activity Assay, ChAT activity in basal forebrain cultures; format: cell-based; details: for ChAT activity in the absence of NT-3: compound added alone to basal forebrain neurons, no NT-3; for ChAT activity in the presence of NT-3: with 100 ng/ml NT-3
# Experimental: Fused pyrrolocarbazoles were tested for the ability to enhance the activity of the neurotrophin NT-3 in basal forebrain cultures. ChAT activity was assayed as a measure of cholinergic neuron function and survival. The concentration of NT-3 (100 ng/ml) used in these experiments increased ChAT activity over control cultures (untreated with NT-3 or a fused pyrrolocarbazole) by 140%.
# Methods. Basal forebrain cultures were prepared from embryonic rats (embryonic day 17) and dissociated with the neutral protease Dispase™. Cells were plated at a density of 4×10^5 cells/cm^2 on poly-1-ornithine coated plastic tissue culture plates in a mixture of DMEM and F12 media (50/50 v/v GIBCO) supplemented with 5% horse serum and 0.5% fetal bovine serum. Cells were incubated at 37° C. in a humidified atmosphere of 5% CO2 /95% air for 5 days. ChAT activity was measured as described in Example III(A)(1).
# Recombinant rat NT-3 was produced by using a recombinant baculovirus expression vector under the control of the polyhedron virus promoter (Fraser, In Vitro Cell. and Dev. Biol. 25:225-235 (1989)). The plasmid pXM-NT3 (Hallbook et al., Neuron 6:845-858 (1991), which contained the rat NT-3 cDNA clone, was provided by Dr. Ira Black (University of Medicine and Dentistry of New Jersey, Piscataway, N.J.). NT-3 cDNA was subcloned into the transfer vector pVL1392 (In Vitrogen Corp., San Diego, Calif.) for recombinant virus production. Recombinant baculovirus was produced as described in Meyer et al. (Meyer at al., J. Neurochem 62:825-833 (1994)).
# [6] = tested on: chick DRG neurons; experiment: DRG Neuron Survival Assay (calcein AM); format: cell-based; details: 48 hours; for viability at 0.25 µM / viability at 0.5 µM / viability at 0.1 µM: Gallus gallus, DRG neuron, read-out: Neuronal Survival (% of Control); for viability at 0.25 µM: 250 nM; for viability at 0.5 µM: 500 nM
# Experimental: Fused pyrrolocarbazoles promoted dorsal root ganglion (DRG) neuronal survival in cultures of chick DRG neurons. Cell survival was measured by uptake of calcein AM, an analog of the viable dye, fluorescein diacetate. Calcein is taken up by viable cells and cleaved intracellularly to fluorescent salts which are retained by intact membranes of viable cells. Microscopic counts of viable neurons correlate directly with relative fluorescence values obtained with the fluorimetric viability assay. This method thus provides a reliable and quantitive measurement of cell survival in the total cell population of a given culture (Bozyczko-Coyne et al., J. Neur. Meth. 50:205-216, 1993).
# Methods: Dorsal root ganglia were dissected from embryonic age day 9 chick embryos and dissociated cells prepared by subsequent Dispase (neutral protease, Collaborative Research) dissociation. Neurons were seeded at low density (3×10^4 cells/cm^2) into 96 well poly-L-ornithine and laminin coated plates. Cells were cultured for 48 hours in serum-free N2 medium (Bottenstein and Sato, 1979) at 37° C. in a humidified atmosphere, 5% CO2 /95% air. Cell survival was assessed at 48 hours using the viable fluorimetric assay described above.
# [7] = tested on: ChAT activity of basal forebrain cultures; experiment: Basal Forebrain ChAT Activity Assay; format: cell-based, rat; details: for activity at 0.25 µM: 250 nM
# Experimental: Fused pyrrolocarbazoles were tested for the ability to increase ChAT activity of basal forebrain cultures.
# Methods: The basal forebrain was dissected from rat embryos (day 17 or 18 embryos) and the cells were dissociated with a neutral protease (Dispase™, Collaborative Research). Neurons were plated at a density of 5×10^4 cells/well (1.5×10^5 cells/cm^2) in poly-1-ornithine and laminin coated plates. Cells were cultured in serum-free N2 medium containing 0.05% BSA at 37° C. in a humidified atmosphere, 5% CO2 /95% air. ChAT activity was assessed 5 days after plating by using the ChAT assay as described in Example III(A)(1).
# [8] = tested on: lumbar motoneurons of chick embryos; experiment: Inhibition of Motoneuron Death In Ovo; format: in vivo; details: for % of motoneurons rescued versus control / Number of motoneurons mean ± SD: E6-E9; for Number of motoneurons mean ± SD: one side of spinal cord
# Experimental: The samples (50 ul) were applied to the vascularized chorioallantoic membrane through a window in the egg shell as previously described (Oppenheim et al., 1988). Embryos were sacrificed on E10 and spinal cords were removed, fixed in Carnoy's solution (10% acetic acid, 60% ethanol, 30% chloroform), embedded in paraffin, sectioned at 8 um, and stained with thionin as described previously (Oppenheim et al., 1988). Motoneurons (identified by morphology and position) were counted by an individual blind to the treatment conditions in every tenth section according to previously established criteria (Oppenheim et al., 1982, Oppenheim, 1986).
# [9] = Rattus norvegicus, 120 h, read-out: ChAT Activity (% of Control)
molecule,measurement,setting,value
"O=C1NC(=O)c2c1c1c3ccccc3[nH]c1c1oc3ccccc3c21 [Compound I-21, 6H, 13H -Benzofuranyl[2,3-a]pyrrolo[3,4-c]carbazole-5,7(5H, 7H)dione]",IC50,"[1]; 3 days, MTS",> 10 µM
same,"Spinal Cord ChAT Activity, % of Control, untreated cultures",[2],122 % of Control
"O=C1NCc2c1c1c(c3[nH]c4ccccc4c23)CCc2ccccc2-1 [Compound I-17, 12,13-Dihydro-5H, 6H, 14H-naphthy[3,4-a]pyrrolo[3,4-c]carbazole-7(7H)one]","Spinal Cord ChAT Activity, % of Control, untreated cultures",[2],197 % of Control
same,IC50,[3],1 µM
same,IC50,[4],0.066 µM
"O=C1NC(=O)c2c1c1c(c3[nH]c4cc(Cl)ccc4c23)Cc2ccccc2-1 [Compound Ia-1, 2-Chloro-6H , 12H, 13H-indeno[2,3a]pyrrolo[3,4-c]carbazole-5,7(5H, 7H)-dione]","Spinal Cord ChAT Activity, % of Control, untreated cultures",[2],139 % of Control
same,ChAT activity in the absence of NT-3,[5],no effect on ChAT activity
same,ChAT activity in the presence of NT-3,[5],enhanced ChAT activity
"O=C1NCc2c3c(c4[nH]c5ccc(F)cc5c4c21)Cc1ccccc1-3 [Compound I-23, 3-Fluoro-6H, 7H, 12H, 13H -indeno[2,3-a]pyrrolo[3,4-c]carbazole-5(5H)one]",Neuronal Survival (% of Control),[6]; 100 nM,inactive
same,viability at 0.25 µM,[6],128%
same,viability at 0.5 µM,[6],135%
same,"Spinal Cord ChAT Activity, % of Control, untreated cultures",[2],208 % of Control
same,IC50,[3],0.06 µM
same,IC50,[4],0.0706 µM
"O=C1NC(=O)c2c1c1c(c3[nH]c4ccccc4c23)CCc2ccccc2-1 [Compound I-14, 12,13-Dihydro-6H, 14H-naphthyl[3,4-a]pyrrolo[3,4-c]carbazole-5,7(5H, 7H)dione]",IC50,[1],3.07 µM
same,"Spinal Cord ChAT Activity, % of Control, untreated cultures",[2],153 % of Control
same,IC50,[3],0.015 µM
"O=C1NCc2c3c(c4[nH]c5ccccc5c4c21)CCc1ccccc1-3 [Compound I-16, 12,13-dihydro-6H, 7H, 14H-naphthyl[3,4-a]pyrrolo[3,4-c]carbazole-5(5H)one]","Spinal Cord ChAT Activity, % of Control, untreated cultures",[2],142 % of Control
same,IC50,[3],0.035 µM
"O=C1NC(=O)c2c1c1c(c3[nH]c4ccc(Br)cc4c23)Cc2ccccc2-1 [Compound I-6, 3-Bromo-6H, 12H, 13H-indeno[2,3-c]pyrrolo[3,4-c]carbazole-5,7(5H, 7H),-dione]","Spinal Cord ChAT Activity, % of Control, untreated cultures",[2],209 % of Control
same,IC50,[3],1 µM
same,ChAT activity in the absence of NT-3,[5],no effect on ChAT activity
same,ChAT activity in the presence of NT-3,[5],enhanced ChAT activity
"O=C1NCc2c1c1c(c3[nH]c4ccc(F)cc4c23)Cc2ccccc2-1 [Compound I-12, 3-Fluoro-5H, 6H, 12H, 13H-indeno[2,3-a]pyrrolo[3,4-c]carbazole-7(7H)one]",viability at 0.1 µM,[6]; 100 nM,126%
same,viability at 0.25 µM,[6],165%
same,viability at 0.5 µM,[6],178%
same,activity at 0.1 µM,"[7]; Rattus norvegicus, 120 h, 100 nM, read-out: ChAT Activity (% of Control)",279%
same,activity at 0.25 µM,[7]; [9],389%
same,"Spinal Cord ChAT Activity, % of Control, untreated cultures",[2],173 % of Control
same,IC50,[3],0.085 µM
same,IC50,[4],0.0267 µM
O=C1NCc2c1c1c(c3[nH]c4ccc(CCc5ccccn5)cc4c23)Cc2ccccc2-1 [Compound I-34],% of motoneurons rescued versus control,[8]; 0.015 ug/egg daily,11%
same,Number of motoneurons mean ± SD,[8]; 0.015 ug/egg daily,10480 ± 585
same,% of motoneurons rescued versus control,[8]; 0.15 ug/egg daily,7%
same,Number of motoneurons mean ± SD,[8]; 0.15 ug/egg daily,10135 ± 354
same,% of motoneurons rescued versus control,[8]; 0.3 ug/egg daily,23%
same,Number of motoneurons mean ± SD,[8]; 0.3 ug/egg daily,11593 ± 654
same,% of motoneurons rescued versus control,[8]; 0.6 ug/egg daily,27%
same,Number of motoneurons mean ± SD,[8]; 0.6 ug/egg daily,11976 ± 1106
same,"increase in motoneuron survival in treated vs. control embryos, maximal effect","[8]; 0.6 ug/egg, vehicle-treated control",27%
same,number of surviving lumbar motoneurons / naturally occurring motoneuron death (in words),"[8]; daily application to chorioallantoic membrane, E6 to E9",dose-dependent increase in the number of surviving lumbar motoneurons
same,dose at which the maximal effect was achieved,[8]; daily dose,0.6 ug/egg
same,viability at 0.1 µM,[6]; 100 nM,159%
same,viability at 0.25 µM,[6],203%
same,viability at 0.5 µM,[6],207%
same,ChAT Activity (% of Control),[7]; 100 nM,inactive
same,ChAT Activity (% of Control),[7]; 500 nM,inactive
same,ChAT Activity (% of Control),[7]; 1000 nM,inactive
same,activity at 0.25 µM,[7]; [9],192%
same,"Spinal Cord ChAT Activity, % of Control, untreated cultures",[2],254 % of Control
"C=CCn1c2ccccc2c2c3c(c4c(c21)Cc1ccccc1-4)C(=O)NC3 [Compound I-26, 13-Allyl-5H,6H,12H-indeno[2,3-a]pyrrolo[3,4-c]carbazole-7(7H)one]","Spinal Cord ChAT Activity, % of Control, untreated cultures",[2],167 % of Control
same,IC50,[3],0.3 µM
"O=C1NCc2c1c1c(c3[nH]c4ccc(F)cc4c23)CCc2ccccc2-1 [Compound I-22, 12,13-Dihydro-3-fluoro-5H, 6H, 14H-naphthyl[3,4-a]pyrrolo[3,4-c]carbazole-7(7H)one]","Spinal Cord ChAT Activity, % of Control, untreated cultures",[2],143 % of Control
same,IC50,[3],0.25 µM
B1,increase of ChAT activity over control cultures,"[5]; NT-3 100 ng/ml, control untreated with NT-3 or fused pyrrolocarbazole",140%
